Series [1] deals with T1, human GLP-1 receptor (hGLP-1 R) (Homo sapiens, UniProt P43220).
T1 construct: expressed in transfected cells; host or cells: HEK-293
Put plainly: cAMP response (HTRF) of HEK-293 cells stably expressing human GLP-1 receptor. It counts as cell-based. The conditions noted are these: HEK-293 cells expressing human GLP-1 receptor, cAMP formation. In outline:
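Detached HEK-293 cells stably expressing the receptor were suspended in HBSS with 20 mM HEPES, 0.1% BSA and 2 mM IBMX. Test compound was added for 30 min at room temperature, and cellular cAMP was quantified by HTRF.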

For series [2], the system named is female diet-induced obese C57BL/6NCrl mice. Put plainly: Single subcutaneous treatment, blood glucose in diet-induced obese mice. The conditions noted are these: single s.c. 100 μg/kg, fed DIO mice (9 months on high-fat diet). It is filed as in vivo. The method, then:
Female C57BL/6NCrl mice were housed in groups (n=8) and had ad-libitum access to high-fat diet and water. Initial blood samples were taken just before administration (s.c.) of vehicle (phosphate buffer solution) or the exendin-4 analogue (e.g. SEQ ID NO: (7)) (100 μg/kg in phosphate buffer) in fed DIO mice. The volume of administration was 5 mL/kg. The animals had access to high-fat diet and water during the experiment, food consumption was determined at all time points for blood sampling. Blood glucose levels were measured at t=0.5 h, t=1 h, t=2 h, t=4 h, t=6 h, t=8 h, and t=24 h. Blood sampling was performed by tail incision without anaesthesia. Statistical analyses were performed with Everstat 6.0 by repeated measures two-way ANOVA and Dunnetts post-hoc analyses. Differences were considered statistically significant at the p<0.05 level.

Series [3] has as its system female NMRI-mice. Put plainly: Gastric emptying and intestinal passage in mice. It is filed as in vivo. The conditions noted are these: 0.02 mg/kg s.c., 30 min prior to coloured bolus; p<0.0001. How it is done: Female NMRI-mice of a body weight between 20 and 30 g were used. Mice were adapted to housing conditions for at least one week. Mice were overnight fasted, while water remained available all the time. On the study day, mice were weighed, single-caged and allowed access to 500 mg of feed for 30 min, while water was removed. At the end of the 30 min feeding period, remaining feed was removed and weighed. 60 min later, a coloured, non-caloric bolus was instilled via gavage into the stomach. The test product or its vehicle in the control group was administered subcutaneously, to reach Cmax when coloured bolus was administered. After another 30 min, the animals were sacrificed and the stomach and the small intestine prepared. The filled stomach was weighed, emptied, carefully cleaned and dried and reweighed. The calculated stomach content indicated the degree of gastric emptying. The small intestine was straightened without force and measured in length. Then the distance from the gastric beginning of the gut to the tip of the farthest travelled intestinal content bolus was measured. The intestinal passage was given as relation in percent of the latter distance and the total length of the small intestine. Statistical analyses were performed with Everstat 6.0 by Student's T-Test. Differences were considered statistically significant at the p<0.05 level. […]

Series [4] relates to female NMRI-mice. Put plainly: Automated assessment of feed intake in mice (22 hours). It counts as in vivo. How it is done: Female NMRI-mice of a body weight between 20 and 30 g were used. Mice were adapted to housing conditions for at least one week and for at least one day single-caged in the assessment equipment, when basal data were recorded simultaneously. On the study day, test product was administered subcutaneously close to the lights-off phase (12 h lights off) and assessment of feed consumption was directly started afterwards. Assessment included continued monitoring (every 30 min) over 22 hours. Repetition of this procedure over several days was possible. Restriction of assessment to 22 hours was for practical reason to allow for reweighing of animals, refilling of feed and water and drug administration between procedures. Results could be assessed as cumulated data over 22 hours or differentiated to 30 min intervals. Statistical analyses were performed with Everstat 6.0 by two-way ANOVA on repeated measures and Dunnetts post-hoc analyses. Differences were considered statistically significant at the p<0.05 level. Fed female NMRI-mice, weighing on average 27 g, were administered 0.01 or 0.1 mg/kg of SEQ ID NO: (7) or phosphate buffered saline (vehicle control) subcutaneously, directly prior to start of feeding monitoring. Lights-off phase (dark phase) started 4 hours later.

A short description of series [5]: physchem. It is filed as physicochemical. The method, then:
Prior to the testing of solubility and stability of a peptide batch, its content was determined. Therefore, two parameters were investigated, its purity (HPLC-UV) and the amount of salt load of the batch (ion chromatography). Since synthesized peptides contain primarily trifluoracetate anions, only anion chromatography was performed. The content was then calculated based on the assumption that peptide-related impurities are detected at the same UV-absorption rate as the target peptide, as well as that cations are not present in the sample.
Therefore, solutions from solid samples were prepared in different buffer systems with a concentration of 1.0 mg/mL compound based on the previously determined content. HPLC-UV was performed after 2 h of gentle agitation from the supernatant, which was obtained by 20 min of centrifugation at 4000 rpm. […] This analysis also served as t0 for the stability testing.
Instrument: Agilent 1100, column: X-Bridge C18 3.5 μm 2.1×150 mm (Waters), eluent: A: H20+500 ppm TFA/B: Methanol, flow: 0.55 ml/min, gradient: 0-5 min: 10-60% B; 5-15 min: 60-99% B; detection: 214 nm.

SMILES strings stand for the structures. Bounds are passed on as bounds.

T1 sequence (P43220 24-463): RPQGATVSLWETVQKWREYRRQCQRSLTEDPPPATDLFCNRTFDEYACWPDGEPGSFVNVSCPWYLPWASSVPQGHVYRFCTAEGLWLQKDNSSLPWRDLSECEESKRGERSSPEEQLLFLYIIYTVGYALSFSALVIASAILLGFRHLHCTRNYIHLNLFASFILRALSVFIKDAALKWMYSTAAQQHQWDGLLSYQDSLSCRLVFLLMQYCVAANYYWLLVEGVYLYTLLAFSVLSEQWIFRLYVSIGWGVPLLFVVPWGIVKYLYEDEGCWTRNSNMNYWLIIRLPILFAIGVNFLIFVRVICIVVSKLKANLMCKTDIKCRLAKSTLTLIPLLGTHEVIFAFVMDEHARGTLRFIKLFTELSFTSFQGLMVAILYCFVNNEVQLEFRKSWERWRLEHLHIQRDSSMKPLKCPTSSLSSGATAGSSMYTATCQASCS

On to `CCCCCCCCCCCCCCCC(=O)N[C@@H](CCC(=O)NCCCC[C@H](NC(=O)[C@H](CO)NC(=O)[C@@H]1CCCN1C(=O)[C@@H]1CCCN1C(=O)[C@@H]1CCCN1C(=O)[C@H](C)NC(=O)CNC(=O)[C@H](CO)NC(=O)[C@H](CO)NC(=O)[C@@H]1CCCN1C(=O)CNC(=O)CNC(=O)[C@H](CC(N)=O)NC(=O)[C@H](CCCCN)NC(=O)[C@H](CC(C)C)NC(=O)[C@H](Cc1c[nH]c2ccccc12)NC(=O)[C@H](CCC(=O)O)NC(=O)[C@@H](NC(=O)[C@H](Cc1ccccc1)NC(=O)[C@H](CC(=O)O)NC(=O)[C@H](CCC(N)=O)NC(=O)[C@H](C)NC(=O)[C@H](CCCNC(=N)N)NC(=O)[C@H](CCCNC(=N)N)NC(=O)[C@H](CO)NC(=O)[C@H](CC(=O)O)NC(=O)[C@H](CCSC)NC(=O)[C@H](CCC(N)=O)NC(=O)[C@H](CCCCN)NC(=O)[C@H](CO)NC(=O)[C@H](CC(C)C)NC(=O)[C@H](CC(=O)O)NC(=O)[C@H](CO)NC(=O)[C@@H](NC(=O)[C@H](Cc1ccccc1)NC(=O)[C@@H](NC(=O)CNC(=O)[C@H](CCC(N)=O)NC(=O)[C@@H](CO)NC(=O)[C@@H](N)Cc1c[nH]cn1)[C@@H](C)O)[C@@H](C)O)[C@@H](C)CC)C(N)=O)C(=O)O` [(7)], for which the response in series [1] was half-maximal at 5.2 pM (EC50). Moreover, the “blood glucose over 24 h compared to vehicle-treated control animals” value in series [2] is recorded as “significantly decreased”. The “reduction of intestinal passage” value in series [3] came out at 54%. Moreover, the “reduction of feed intake at the end of the study (22 hours)” value is listed as 17% in series [4] (0.01 mg/kg s.c., p=0.0027) and 37% in series [4] (0.1 mg/kg s.c., p<0.0001). Besides, the solubility at 2 h in series [5] (pH 4.5) and in series [5] (pH 7.4) was above 1000 µg/mL each time.
